How the values were obtained:
[1] = tested on: diabetic nephropathy mice; test: Ex vivo autoradiography of kidneys after tail vein injection; conditions: mouse
Source text: The spontaneous type 2 diabetes mice model was developed using the db/db homozygous mice (BKS.Cg-Dock7m+/+LeprdbJ; JAX® Mice Strain Code 607) discovered by the Jackson Laboratory in the United States. […] Their pathogenesis is very similar to that of subjects with type 2 diabetes. The control group mice were either normal mice (m/m) or heterozygous mice (m/db).
Sixty minutes later, the mice were euthanized by dislocation, and their kidneys were removed and rapidly frozen in dry ice. 20 µm frozen sections were prepared using a cryostat (Reward, RWD Minux FS800). Frozen sections were held in contact with the developing plate (FUJIFILM; BAS-IP SR 2025E) for 2 hours, and images were read and quantitatively analyzed using an autoradiography scanner (CR-35 Bio; Elysia-Raytest).

[2] = tested on: db/db model mice; test: PET in vivo imaging; conditions: 15 MBq intravenous, 90 minutes acquisition, FIG.3
Protocol: PET scans were performed using an Inveon scanner (Siemens Medical Solutions Knoxville, TN, USA). Mice (m/m and db/db mice) were anesthetized with 1.5% (v/v) isoflurane and then fixed in the center of the FOV of a PET scanner. Immediately after intravenous injection of ^18F-KIDJI-004 (15 MBq), 90 minutes of radiation signals were acquired in three-dimensional mode. The energy window is 350-750 keV. After the PET scan was completed, mice were intravenously injected with iodofol (35%) (Optiray 350; Guerbet) at a dose of 5 µL/g body weight, followed immediately by a 30-second CT scan (X-ray source: 70 kV/88 mA, FOV: 60 mm). Mice were anesthetized with 1.5% (v/v) isoflurane during PET and CT scans.

[3] = tested on: db/db model mice; test: SPECT in vivo imaging; conditions: 11.1 MBq via the tail vein, acquisition up to 2 hours, FIG.3
Protocol: SPECT scans were performed using the nanoScan SPECT/CT scanner (Mediso Medical Imaging Systems, Hungary). […] Immediately afterward, the radiation signal was acquired in three-dimensional mode every 30 minutes for up to 2 hours. The energy window is set to 360-700 keV. After completing the SPECT scan, mice were injected with iodofol (Optiray 350; Guerbet) via the tail vein at a dose of 5 µL/g body weight, followed immediately by a 30-second CT scan (X-ray source: 50 kV/980 µA, 480 projections; mice were anesthetized with 1.5% (v/v) isoflurane during both the SPECT and CT scans).

Row | accumulation in the renal pelvis of diabetic nephropathy mice [1] | accumulation in the kidneys of normal mice [2] | accumulation in the renal pelvis of the kidneys of db/db model mice [2] | accumulation in the kidneys of normal mice [3] | accumulation in the renal pelvis of the kidneys of db/db model mice [3] | SMILES
1 | significant accumulation | – | – | – | – | C[C@H]1Cc2c(nnn2-c2ncccn2)CN1C(=O)c1ccnc(C(F)(F)F)c1[18F] [^18F-KIDJI-003, (S)-(3-fluoro-2-(trifluoromethyl)pyridin-4-yl)(6-methyl-1-(pyrimidin-2-yl)-1,4,6,7-tetrahydro-5H-[1,2,3]triazolo[4,5-c]pyridin-5-yl) methyl ketone]
2 | – | no significant accumulation | significantly accumulated | – | – | Cc1cc(C(=O)N2Cc3nnn(-c4ncccn4)c3C[C@@H]2C)cc([18F])n1 [^18F-KIDJI-004, (S)-(2-fluoro-6-methylpyridin-4-yl)(6-methyl-1-(pyrimidin-2-yl)-1,4,6,7-tetrahydro-5H-[1,2,3]triazolo[4,5-c]pyridin-5-yl) methyl ketone]
3 | – | – | – | no significant accumulation | significantly accumulated | O=C(c1ccc([131I])cc1)N1CCc2c(nnn2-c2ncccn2)C1 [^131I-KIDJI-007, (4-iodophenyl)(1-(pyrimidin-2-yl)-1,4,6,7-tetrahydro-5H-[1,2,3]triazolo[4,5-c]pyridin-5-yl) methyl ketone]
4 | – | – | – | no significant accumulation | significantly accumulated | COc1ccc(C(=O)N2CCc3c(nnn3-c3ncccn3)C2)cc1[131I] [^131I-KIDJI-008, (3-iodo-4-methoxyphenyl)(1-(pyrimidin-2-yl)-1,4,6,7-tetrahydro-5H-[1,2,3]triazolo[4,5-c]pyridin-5-yl) methyl ketone]
5 | – | – | – | no significant accumulation | significantly accumulated | O=C(c1ccc([N+](=O)[O-])cc1[131I])N1CCc2c(nnn2-c2ncccn2)C1 [^131I-KIDJI-009, (2-iodo-4-nitro)(1-(pyrimidin-2-yl)-1,4,6,7-tetrahydro-5H-[1,2,3]triazolo[4,5-c]pyridin-5-yl) methyl ketone]
6 | – | – | – | no significant accumulation | significantly accumulated | O=C(c1ccc([131I])cc1F)N1CCc2c(nnn2-c2ncccn2)C1 [^131I-KIDJI-010, (2-fluoro-4-iodophenyl)(1-(pyrimidin-2-yl)-1,4,6,7-tetrahydro-5H-[1,2,3]triazolo[4,5-c]pyridin-5-yl) methyl ketone]
